Measured values from paper PMC4349960, “[^18F]FE@SUPPY: a suitable PET tracer for the adenosine A3 receptor? An in vivo study in rodents” (European Journal of Nuclear Medicine and Molecular Imaging, 2015).

Assays:
A3R [1] = molecular target: T1, A3R (Rattus norvegicus, UniProt P28647); assay: Small-animal PET in rats: baseline and A3R blocking scans; type: in vivo; settings: baseline PET, 60 min
T1 construct: Adult male Sprague-Dawley rats; from tissue; host or cells: living Sprague-Dawley rats, brain volume of interest in PET
T1 sequence (P28647 1-320): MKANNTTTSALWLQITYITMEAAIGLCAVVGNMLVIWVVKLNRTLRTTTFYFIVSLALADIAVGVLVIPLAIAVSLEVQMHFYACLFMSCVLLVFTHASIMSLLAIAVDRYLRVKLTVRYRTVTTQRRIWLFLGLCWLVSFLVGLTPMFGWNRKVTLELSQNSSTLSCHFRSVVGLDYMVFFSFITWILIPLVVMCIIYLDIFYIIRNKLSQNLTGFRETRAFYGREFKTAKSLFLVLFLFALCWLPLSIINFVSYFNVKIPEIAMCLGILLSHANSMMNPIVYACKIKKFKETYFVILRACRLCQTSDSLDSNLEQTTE
From the text: A microPET Focus220 scanner (Siemens, Medical Solutions) was used for the experiments. It has 168 detector modules providing a 7.6-cm axial and 22-cm transaxial field of view. The resolution of the reconstructed images (filtered back projection) was 1.3 mm (full-width at half-maximum) in the central field of view and remained under 2 mm within the central 5 cm diameter field of view. For PET imaging two groups of animals (rats and xenografted mice) were investigated. Rats were divided into four groups. The first group received vehicle (dimethyl sulphoxide, DMSO) intravenously via a lateral tail vein 30 min prior to radiotracer administration (three animals, 14.3 – 70.1 MBq, 0.2604 ± 0.06 μg). The second group received MRS1523 – a selective A3R antagonist – at a dose of 2 mg/kg body weight (dissolved in DMSO, 4 mg/mL) intravenously via a tail vein 30 min prior to radiotracer administration (three animals, 18.8 – 59.1 MBq, 0.3443 ± 0.05 μg). The third group received unlabelled title compound FE@SUPPY (dissolved in DMSO, 4 mg/mL) at a dose of 2 mg/kg 30 min before tracer administration (three animals, 9.7 – 16.1 MBq, 0.3926 ± 0.04 μg). In the final study group, the effect of P-glycoprotein inhibition was assessed by intravenous administration of 15 mg/kg TQD (freshly dissolved on each experimental day in 2.5 % aqueous dextrose solution and injected intravenously via a tail vein at a volume of 3 mL/kg over 1 min) 60 min prior to tracer administration (three animals, 13.9 – 26.8 MBq, 0.7451 ± 0.11 μg).
Anaesthetized animals were positioned in the imaging chamber of the microPET scanner, which was kept at 38 °C throughout the experiment. A stereotactic holder attached to the bed, consisting of ear plugs and a tooth bar, was used to fix the animal's head to ensure a reproducible position during the PET studies. [^18F]FE@SUPPY (27.91 ± 13.82 MBq) dissolved in 0.48 ± 0.22 mL phosphate-buffered saline (pH 7.4) was administered as a bolus via a tail vein. Dynamic PET imaging was performed over 60 min in all animals. At the end of the PET scan the animals were killed, a terminal blood sample was collected and whole brains were removed for testing of metabolite stability.
For all PET scans (rats and xenografted mice), list mode data were acquired with an energy window of 350 – 750 keV (rats) or 250 – 750 keV (mice) and a 6-ns timing window. Before each PET scan, a transmission scan using a ^57Co point source was recorded over 10 min. The PET data from the 60-min dynamic scans were sorted into three-dimensional sinograms according to the following frame sequence: 6 × 20 s, 5 × 60 s, 4 × 120 s, 3 × 300 s and 3 × 600 s. For the 90-min scans (in the xenografted mice) the following frame sequence was used: 8 × 5 s, 2 × 10 s, 2 × 30 s, 3 × 60 s, 2 × 150 s, 2 × 300 s, 4 × 600 s and 2 × 900 s. PET images were reconstructed by Fourier rebinning followed by filtered back projection with a ramp filter. The resulting voxel size was 0.6 × 0.6 × 0.8 mm for rats or 0.4 × 0.4 × 0.8 mm for mice. The standard data correction protocol (normalization, attenuation and decay correction) was applied to the data. A calibration factor for converting units of microPET images into absolute radioactivity concentration units was first generated by imaging a phantom filled with a known concentration of [^18F]FDG.
Rat brains were manually outlined on multiple planes of the PET summation images using the image analysis software PMOD 3.1 (Pmod Ltd, Zürich, Switzerland) or Amide. Volumes of interest in the brain or solid tissue mass (xenografts) were transferred to the PET images of the individual time frames and time–activity curves (TACs) expressed in units of kilobecquerels per millilitre were calculated. To facilitate comparison of TACs of different animals, radioactivity concentrations were normalized to dose and weight and expressed as standardized uptake value (SUV, %ID/cm^3 or %ID/g). […]

P-gp = assay: Small-animal PET in rats: efflux (P-gp) inhibition; type: in vivo
From the text: A microPET Focus220 scanner (Siemens, Medical Solutions) was used for the experiments. […] The resolution of the reconstructed images (filtered back projection) was 1.3 mm (full-width at half-maximum) in the central field of view and remained under 2 mm within the central 5 cm diameter field of view [15]. For PET imaging two groups of animals (rats and xenografted mice) were investigated. Rats were divided into four groups.
Anaesthetized animals were positioned in the imaging chamber of the microPET scanner, which was kept at 38 °C throughout the experiment. […]
For all PET scans (rats and xenografted mice), list mode data were acquired with an energy window of 350 – 750 keV (rats) or 250 – 750 keV (mice) and a 6-ns timing window. Before each PET scan, a transmission scan using a ^57Co point source was recorded over 10 min. […] A calibration factor for converting units of microPET images into absolute radioactivity concentration units was first generated by imaging a phantom filled with a known concentration of [^18F]FDG.
Rat brains were manually outlined on multiple planes of the PET summation images using the image analysis software PMOD 3.1 (Pmod Ltd, Zürich, Switzerland) or Amide [18]. […] To facilitate comparison of TACs of different animals, radioactivity concentrations were normalized to dose and weight and expressed as standardized uptake value (SUV, %ID/cm^3 or %ID/g). […]

A3R [2] = tested on: A3R; set-up: method as in PMID 20447552; settings: cited from earlier work

SMILES: CCSC(=O)c1c(CC)nc(-c2ccccc2)c(C(=O)OCC[18F])c1CC [[^18F]FE@SUPPY, 5-(2-[^18F]fluoroethyl)-2,4-diethyl-3-(ethylsulfanylcarbonyl)-6-phenylpyridine-5-carboxylate]
- tracer uptake in fat-rich regions (harderian and lacrimal glands) (A3R [1]): high uptake
- tracer uptake in the brain (A3R [1]): low uptake
- peak brain activity (P-gp; TQD-treated group (15 mg/kg, 60 min before tracer)): 1.53 ± 0.01 SUV
- peak brain activity (P-gp; untreated group): 1.56 ± 0.22 SUV
- Autoradiography in humans and rats (A3R [2]): High selectivity; FE@SUPPLY comparable with MRS1523 [12]
